In the supplement of paper PMC10307832 one finds relative viability data, which are given here for seven cell lines.

Common to all, as to test: relative viability (nuclei count vs DMSO), 5 days (fraction); higher = more cells survive
Compound in test [1]: O=C(CCCCCCNC(=O)c1cnc(N(c2ccccc2)c2ccccc2)nc1)NO [Ricolinostat] + CC(C)C[C@H](NC(=O)[C@H](Cc1ccccc1)NC(=O)c1cnccn1)B(O)O [Bortezomib] (partner 0.002 µM)
In outline: (§1)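 Relative viability was taken as the ratio of nuclei in treated wells to nuclei in vehicle wells. Lung cancer cell lines in 1536-well plates received compounds by pin tool one day after seeding, either one drug alone or a fixed anchor-drug dose plus five library-drug doses (not always all listed) in √10 steps. Nuclei were counted on 4× images after 5 days of treatment, and values are medians of duplicate plates.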

Compound in test [2]: CC1=CN2C(=O)C=C(N=C2C(=C1)C(C)NC3=CC=CC=C3)N4CCOCC4 [TGX 221] + O=C(CCCCCCC(=O)Nc1ccccc1)NO [Vorinostat] (partner 1 µM)
In outline: as §1

Compound in test [3]: CC1=CN2C(=O)C=C(N=C2C(=C1)C(C)NC3=CC=CC=C3)N4CCOCC4 [TGX 221] + Nc1ncn([C@H]2C[C@H](O)[C@@H](CO)O2)c(=O)n1 [Decitabine] (partner 2 µM)
The essentials:
as §1

Compound in test [4]: C1=CC=C(C(=C1)C2=CC=C(C=C2)C3=CSC4=C3C(=C(C(=O)N4)C#N)O)O + CCNC(=O)c1noc(-c2cc(C(C)C)c(O)cc2O)c1-c1ccc(CN2CCOCC2)cc1 [Luminespib] (partner 0.01 µM)
In outline:
as §1

For NCI-H1651, the relative viability in test [1] (first compound 0.08 µM) is 0.941; in test [1] (first compound 0.253 µM), 0.865; in test [1] (first compound 0.8 µM), 0.918; in test [1] (first compound 2.53 µM), 0.984; in test [2] (first compound 0.08 µM), 0.525; in test [2] (first compound 0.253 µM) it was 0.646. Moreover, the relative viability worked out at 0.527 in test [2] (first compound 0.8 µM); 0.517 in test [2] (first compound 2.53 µM); 0.581 in test [2] (first compound 8 µM); 0.524 in test [3] (first compound 0.08 µM); 0.675 in test [3] (first compound 0.253 µM); 0.492 in test [3] (first compound 0.8 µM). In addition, the relative viability in test [3] (first compound 2.53 µM) was 0.594; in test [3] (first compound 8 µM) it was 0.601; in test [4] (first compound 0.08 µM), 0.77; in test [4] (first compound 0.253 µM), 0.818; in test [4] (first compound 0.8 µM), 0.971; in test [4] (first compound 2.53 µM), 0.974. In addition, the relative viability in test [4] (first compound 8 µM) stood at 0.546.

With NCI-H1666, the relative viability in test [1] (first compound 0.08 µM) is 0.598; in test [1] (first compound 0.253 µM), 0.97; in test [1] (first compound 0.8 µM), 0.724; in test [1] (first compound 2.53 µM), 0.579; in test [2] (first compound 0.08 µM), 0.958; in test [2] (first compound 0.253 µM), 0.963. Also, the relative viability in test [2] (first compound 0.8 µM) turned out to be 1.06; in test [2] (first compound 2.53 µM), 1.06; in test [2] (first compound 8 µM) it was 1.1; in test [3] (first compound 0.08 µM) it was 0.649; in test [3] (first compound 0.253 µM), 0.738; in test [3] (first compound 0.8 µM) it was 0.76. Also, the relative viability amounted to 0.709 in test [3] (first compound 2.53 µM); 0.664 in test [3] (first compound 8 µM); 0.942 in test [4] (first compound 0.08 µM); 1.05 in test [4] (first compound 0.253 µM); 0.949 in test [4] (first compound 0.8 µM); 1.01 in test [4] (first compound 2.53 µM). In test [4] (first compound 8 µM), the relative viability stood at 1.01.

On to NCI-H1734, for which the relative viability in test [1] (first compound 0.08 µM) was 0.758; in test [1] (first compound 0.253 µM), 0.954; in test [1] (first compound 0.8 µM) it was 0.958; in test [1] (first compound 2.53 µM), 0.827; in test [2] (first compound 0.08 µM) it was 0.675; in test [2] (first compound 0.253 µM), 0.67. The relative viability in test [2] (first compound 0.8 µM) is 0.787; in test [2] (first compound 2.53 µM), 0.702; in test [2] (first compound 8 µM), 0.764; in test [3] (first compound 0.08 µM), 0.508; in test [3] (first compound 0.253 µM), 0.527; in test [3] (first compound 0.8 µM) it was 0.492. In addition, the relative viability in test [3] (first compound 2.53 µM) is 0.518; in test [3] (first compound 8 µM), 0.431; in test [4] (first compound 0.08 µM) it was 0.16; in test [4] (first compound 0.253 µM) it was 0.245; in test [4] (first compound 0.8 µM), 0.196; in test [4] (first compound 2.53 µM) it was 0.214. The relative viability in test [4] (first compound 8 µM) was 0.208.

In the case of NCI-H1755, the relative viability in test [1] (first compound 0.08 µM) was determined as 0.929; in test [1] (first compound 0.8 µM), 0.978; in test [1] (first compound 2.53 µM) it was 0.926; in test [2] (first compound 0.08 µM) it was 0.677; in test [2] (first compound 0.253 µM), 0.681; in test [2] (first compound 0.8 µM) it was 0.775. Moreover, the relative viability amounted to 0.718 in test [2] (first compound 2.53 µM); 0.667 in test [2] (first compound 8 µM); 0.723 in test [3] (first compound 0.08 µM); 0.657 in test [3] (first compound 0.253 µM); 0.655 in test [3] (first compound 0.8 µM); 0.631 in test [3] (first compound 2.53 µM). Besides, the relative viability in test [3] (first compound 8 µM) was found to be 0.632; in test [4] (first compound 0.08 µM), 0.401; in test [4] (first compound 0.253 µM), 0.302; in test [4] (first compound 0.8 µM), 0.336; in test [4] (first compound 2.53 µM), 0.349; in test [4] (first compound 8 µM) it was 0.447.

For NCI-H1915, the relative viability worked out at 0.932 in test [1] (first compound 0.08 µM); 1.01 in test [1] (first compound 0.253 µM); 0.903 in test [1] (first compound 0.8 µM); 0.98 in test [1] (first compound 2.53 µM); 0.436 in test [2] (first compound 0.08 µM); 0.486 in test [2] (first compound 0.253 µM). Also, the relative viability was 0.489 in test [2] (first compound 0.8 µM); 0.437 in test [2] (first compound 2.53 µM); 0.554 in test [2] (first compound 8 µM); 0.254 in test [3] (first compound 0.08 µM); 0.255 in test [3] (first compound 0.253 µM); 0.256 in test [3] (first compound 0.8 µM). Also, the relative viability in test [3] (first compound 2.53 µM) came out at 0.257; in test [3] (first compound 8 µM), 0.257; in test [4] (first compound 0.08 µM) it was 0.665; in test [4] (first compound 0.253 µM) it was 0.632; in test [4] (first compound 2.53 µM), 0.929; in test [4] (first compound 8 µM) it was 0.576.

For NCI-H1975, the relative viability in test [1] (first compound 0.08 µM) was determined as 0.406; in test [1] (first compound 0.253 µM) it was 0.357; in test [1] (first compound 2.53 µM) it was 0.233; in test [2] (first compound 0.08 µM) it was 0.749; in test [2] (first compound 0.253 µM) it was 0.656; in test [2] (first compound 0.8 µM), 0.689. For the same cell line, the relative viability amounted to 0.718 in test [2] (first compound 2.53 µM); 0.607 in test [2] (first compound 8 µM); 0.542 in test [3] (first compound 0.08 µM); 0.386 in test [3] (first compound 0.253 µM); 0.385 in test [3] (first compound 0.8 µM); 0.362 in test [3] (first compound 2.53 µM). The relative viability turned out to be 0.39 in test [3] (first compound 8 µM); 0.174 in test [4] (first compound 0.08 µM); 0.248 in test [4] (first compound 0.253 µM); 0.161 in test [4] (first compound 0.8 µM); 0.253 in test [4] (first compound 2.53 µM); 0.161 in test [4] (first compound 8 µM).

Turning to NCI-H1993, the relative viability in test [1] (first compound 0.08 µM) was 0.861; in test [1] (first compound 0.253 µM), 1; in test [1] (first compound 0.8 µM) it was 1.25; in test [1] (first compound 2.53 µM) it was 1.15; in test [2] (first compound 0.08 µM), 0.821; in test [2] (first compound 0.253 µM), 0.611. The relative viability is 0.742 in test [2] (first compound 0.8 µM); 0.788 in test [2] (first compound 2.53 µM); 0.724 in test [2] (first compound 8 µM); 0.593 in test [3] (first compound 0.08 µM); 0.693 in test [3] (first compound 0.253 µM); 0.663 in test [3] (first compound 0.8 µM). The relative viability in test [3] (first compound 2.53 µM) was 0.598; in test [3] (first compound 8 µM) it was 0.547; in test [4] (first compound 0.08 µM), 0.625; in test [4] (first compound 0.253 µM) it was 0.715; in test [4] (first compound 0.8 µM), 0.7; in test [4] (first compound 2.53 µM), 0.763. Also, the relative viability in test [4] (first compound 8 µM) was 0.646.
